{"source": "patent US8921362B2", "about": "“6,7-dialkoxy quinazoline derivatives and methods of treating drug resistant and other tumors” (Natco Pharma Limited, priority 2008, dated 2014)", "experiment_in_all_cases": "KinomeScan", "assay_type_in_all_cases": "binding", "settings_in_all_cases": "read-out: % Ctrl @ 10000 nM", "key": {"RIOK2": {"molecular_target": "T1, RIOK2 (Homo sapiens, UniProt Q9BVS4)", "T1 construct": "host or cells: E. coli host derived from BL21, T7 phage display", "outline": "(§1)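 Competition binding of kinase-tagged T7 phage (BL21-derived E. coli lysates) to immobilized ligand on biotin-blocked beads; test compound diluted from 40× DMSO stocks, 2.5% DMSO in no-compound controls. Bound phage eluted and titer quantified by qPCR.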"}, "TRKA": {"molecular_target": "T2, TRKA (Homo sapiens, UniProt P04629)", "T2 construct": "host or cells: E. coli host derived from BL21, T7 phage", "T2 sequence (P04629 33-796)": "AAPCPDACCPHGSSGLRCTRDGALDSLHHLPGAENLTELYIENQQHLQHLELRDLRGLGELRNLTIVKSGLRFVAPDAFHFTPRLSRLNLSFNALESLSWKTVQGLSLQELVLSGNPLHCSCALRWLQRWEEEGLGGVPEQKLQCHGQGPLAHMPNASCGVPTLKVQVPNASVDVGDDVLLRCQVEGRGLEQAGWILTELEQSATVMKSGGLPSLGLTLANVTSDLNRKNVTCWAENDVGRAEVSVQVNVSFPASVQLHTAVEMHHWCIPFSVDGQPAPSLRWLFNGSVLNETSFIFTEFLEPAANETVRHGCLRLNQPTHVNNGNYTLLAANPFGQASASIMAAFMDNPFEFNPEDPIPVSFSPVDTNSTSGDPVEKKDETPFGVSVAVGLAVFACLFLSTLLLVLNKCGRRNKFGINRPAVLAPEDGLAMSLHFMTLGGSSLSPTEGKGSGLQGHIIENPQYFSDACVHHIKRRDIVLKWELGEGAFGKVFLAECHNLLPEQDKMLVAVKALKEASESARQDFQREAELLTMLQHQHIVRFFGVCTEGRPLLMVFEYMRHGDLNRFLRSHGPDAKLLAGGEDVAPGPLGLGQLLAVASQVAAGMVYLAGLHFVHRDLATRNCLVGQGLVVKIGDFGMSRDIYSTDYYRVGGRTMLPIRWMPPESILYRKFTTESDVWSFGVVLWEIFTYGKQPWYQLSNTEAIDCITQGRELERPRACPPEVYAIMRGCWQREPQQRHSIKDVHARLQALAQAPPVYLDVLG", "outline": "as §1"}, "MARK2": {"molecular_target": "T3, MARK2 (Homo sapiens, UniProt Q7KZI7)", "T3 construct": "host or cells: E. coli host derived from the BL21 strain, infected with T7 phage", "outline": "as §1"}, "LCK": {"molecular_target": "T4, LCK (Homo sapiens, UniProt P06239)", "T4 construct": "host or cells: T7 phage grown in E. coli host derived from BL21", "outline": "as §1"}, "PLK1": {"molecular_target": "T5, PLK1 (Homo sapiens, UniProt P53350)", "T5 construct": "host or cells: T7 phage in E. coli host derived from BL21", "outline": "as §1"}, "MAP4K2": {"molecular_target": "T6, MAP4K2 (Homo sapiens, UniProt Q12851)", "T6 construct": "host or cells: E. coli host derived from the BL21 strain, infected with T7 phage", "outline": "as §1"}, "[1]": {"molecular_target": "T7, RPS6KA5(Kin.Dom.-1-N-terminal) (Homo sapiens, UniProt O75582)", "T7 construct": "RPS6KA5(Kin.Dom.-1-N-terminal); host or cells: E. coli host derived from BL21, T7 phage display", "T7 sequence (O75582 49-318 limits assumed)": "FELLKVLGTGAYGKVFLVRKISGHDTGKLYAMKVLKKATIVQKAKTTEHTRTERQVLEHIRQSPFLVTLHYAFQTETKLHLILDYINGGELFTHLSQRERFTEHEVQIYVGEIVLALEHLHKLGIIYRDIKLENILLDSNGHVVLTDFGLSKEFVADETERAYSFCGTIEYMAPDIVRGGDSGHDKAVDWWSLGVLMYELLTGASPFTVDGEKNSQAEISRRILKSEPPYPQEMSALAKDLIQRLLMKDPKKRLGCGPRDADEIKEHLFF", "outline": "as §1"}, "DMPK": {"molecular_target": "T8, DMPK (Homo sapiens, UniProt Q09013)", "T8 construct": "purchased Ambit Biosciences Corp (KinomeScan); host or cells: T7 phage in E. coli host derived from BL21", "outline": "as §1"}, "LKB1": {"molecular_target": "T9, LKB1 (Homo sapiens, UniProt Q15831)", "T9 construct": "host or cells: E. coli host derived from the BL21 strain, infected with T7 phage", "outline": "as §1"}, "LIMK2": {"molecular_target": "T10, LIMK2 (Homo sapiens, UniProt P53671)", "T10 construct": "host or cells: T7 phage grown in E. coli host derived from BL21", "outline": "as §1"}, "ULK1": {"molecular_target": "T11, ULK1 (Homo sapiens, UniProt O75385)", "T11 construct": "host or cells: E. coli host derived from BL21, T7 phage", "outline": "as §1"}, "ITK": {"molecular_target": "T12, ITK (Homo sapiens, UniProt Q08881)", "T12 construct": "host or cells: T7 phage grown in E. coli host derived from BL21", "outline": "as §1"}, "YES": {"molecular_target": "T13, YES (Homo sapiens, UniProt P07947)", "T13 construct": "host or cells: E. coli host derived from BL21, T7 phage", "outline": "as §1"}, "ZAP70": {"molecular_target": "T14, ZAP70 (Homo sapiens, UniProt P43403)", "T14 construct": "host or cells: T7 phage grown in an E. coli host derived from BL21", "outline": "as §1"}, "[2]": {"molecular_target": "T15, RPS6KA6(Kin.Dom.-1-N-terminal) (Homo sapiens, UniProt Q9UK32)", "T15 construct": "RPS6KA6(Kin.Dom.-1-N-terminal); host or cells: E. coli host derived from BL21, T7 phage display", "T15 sequence (Q9UK32 73-330 limits assumed)": "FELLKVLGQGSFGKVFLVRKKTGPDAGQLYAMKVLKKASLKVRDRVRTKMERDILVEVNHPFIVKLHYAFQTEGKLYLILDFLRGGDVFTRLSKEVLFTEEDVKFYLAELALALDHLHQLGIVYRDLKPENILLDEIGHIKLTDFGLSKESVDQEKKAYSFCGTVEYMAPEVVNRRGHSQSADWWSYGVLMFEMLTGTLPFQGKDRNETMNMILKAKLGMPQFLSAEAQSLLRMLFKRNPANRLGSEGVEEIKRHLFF", "outline": "as §1"}, "CDK9": {"molecular_target": "T16, CDK9 (Homo sapiens, UniProt P50750)", "T16 construct": "host or cells: T7 phage in E. coli host derived from BL21", "outline": "as §1"}, "[3]": {"molecular_target": "T17, EGFR(L747-S752del, P753S) (Homo sapiens, UniProt P00533, DEL747-752/P753S)", "T17 construct": "purchased Ambit Biosciences Corp (KinomeScan); host or cells: T7 phage in E. coli host derived from BL21", "T17 sequence (P00533 with tags, fused parts or gaps DEL747-752/P753S)": "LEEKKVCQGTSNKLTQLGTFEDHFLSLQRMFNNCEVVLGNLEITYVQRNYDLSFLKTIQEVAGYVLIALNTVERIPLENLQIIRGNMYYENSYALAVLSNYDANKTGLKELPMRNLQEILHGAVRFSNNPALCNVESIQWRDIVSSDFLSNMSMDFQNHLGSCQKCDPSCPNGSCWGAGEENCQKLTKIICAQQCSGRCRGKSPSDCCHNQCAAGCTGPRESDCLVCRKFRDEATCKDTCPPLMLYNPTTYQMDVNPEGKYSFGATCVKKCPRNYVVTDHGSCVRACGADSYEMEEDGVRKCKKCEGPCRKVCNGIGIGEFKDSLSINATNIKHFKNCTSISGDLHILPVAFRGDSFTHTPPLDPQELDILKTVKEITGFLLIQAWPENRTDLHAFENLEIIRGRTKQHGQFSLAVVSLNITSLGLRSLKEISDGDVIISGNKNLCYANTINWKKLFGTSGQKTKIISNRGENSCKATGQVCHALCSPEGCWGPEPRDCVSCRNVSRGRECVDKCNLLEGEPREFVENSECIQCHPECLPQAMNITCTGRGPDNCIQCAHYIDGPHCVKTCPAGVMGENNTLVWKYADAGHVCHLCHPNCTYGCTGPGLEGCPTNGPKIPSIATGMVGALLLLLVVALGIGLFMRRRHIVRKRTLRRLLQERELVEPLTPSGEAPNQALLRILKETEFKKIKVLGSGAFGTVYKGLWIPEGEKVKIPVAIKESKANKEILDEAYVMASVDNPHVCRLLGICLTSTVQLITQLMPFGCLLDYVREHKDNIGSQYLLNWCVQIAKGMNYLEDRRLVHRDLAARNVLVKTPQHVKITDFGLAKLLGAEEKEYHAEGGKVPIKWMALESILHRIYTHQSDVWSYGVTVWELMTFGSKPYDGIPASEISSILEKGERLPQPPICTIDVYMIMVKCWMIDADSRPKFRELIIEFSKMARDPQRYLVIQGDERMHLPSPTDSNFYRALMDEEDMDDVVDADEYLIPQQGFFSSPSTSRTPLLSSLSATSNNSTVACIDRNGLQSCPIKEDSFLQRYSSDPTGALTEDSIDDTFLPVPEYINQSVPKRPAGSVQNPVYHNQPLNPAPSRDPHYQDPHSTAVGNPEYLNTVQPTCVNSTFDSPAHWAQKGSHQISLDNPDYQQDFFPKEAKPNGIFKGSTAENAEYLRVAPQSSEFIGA", "outline": "as §1"}, "CDK7": {"molecular_target": "T18, CDK7 (Homo sapiens, UniProt P50613)", "T18 construct": "host or cells: T7 phage in E. coli host derived from BL21", "outline": "as §1"}, "FGR": {"molecular_target": "T19, FGR (Homo sapiens, UniProt P09769)", "T19 construct": "host or cells: T7 phage in E. coli host derived from BL21", "T19 sequence (P09769 whole entry)": "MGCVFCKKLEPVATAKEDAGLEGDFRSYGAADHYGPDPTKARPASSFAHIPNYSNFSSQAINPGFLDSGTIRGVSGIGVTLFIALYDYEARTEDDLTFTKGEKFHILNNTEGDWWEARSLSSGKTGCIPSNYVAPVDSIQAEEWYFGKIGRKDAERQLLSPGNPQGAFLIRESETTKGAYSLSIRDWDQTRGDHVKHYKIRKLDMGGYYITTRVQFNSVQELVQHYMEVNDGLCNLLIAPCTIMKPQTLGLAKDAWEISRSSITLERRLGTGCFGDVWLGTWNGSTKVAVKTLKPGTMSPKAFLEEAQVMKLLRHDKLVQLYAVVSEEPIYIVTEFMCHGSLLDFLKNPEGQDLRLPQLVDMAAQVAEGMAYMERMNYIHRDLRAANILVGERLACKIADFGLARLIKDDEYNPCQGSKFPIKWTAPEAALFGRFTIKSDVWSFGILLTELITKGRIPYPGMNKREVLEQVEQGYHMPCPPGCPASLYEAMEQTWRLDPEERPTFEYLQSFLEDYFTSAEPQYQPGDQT", "outline": "as §1"}, "PIP5K1A": {"molecular_target": "T20, PIP5K1A (Homo sapiens, UniProt Q99755)", "T20 construct": "host or cells: T7 phage in E. coli host derived from BL21", "T20 sequence (Q99755 whole entry)": "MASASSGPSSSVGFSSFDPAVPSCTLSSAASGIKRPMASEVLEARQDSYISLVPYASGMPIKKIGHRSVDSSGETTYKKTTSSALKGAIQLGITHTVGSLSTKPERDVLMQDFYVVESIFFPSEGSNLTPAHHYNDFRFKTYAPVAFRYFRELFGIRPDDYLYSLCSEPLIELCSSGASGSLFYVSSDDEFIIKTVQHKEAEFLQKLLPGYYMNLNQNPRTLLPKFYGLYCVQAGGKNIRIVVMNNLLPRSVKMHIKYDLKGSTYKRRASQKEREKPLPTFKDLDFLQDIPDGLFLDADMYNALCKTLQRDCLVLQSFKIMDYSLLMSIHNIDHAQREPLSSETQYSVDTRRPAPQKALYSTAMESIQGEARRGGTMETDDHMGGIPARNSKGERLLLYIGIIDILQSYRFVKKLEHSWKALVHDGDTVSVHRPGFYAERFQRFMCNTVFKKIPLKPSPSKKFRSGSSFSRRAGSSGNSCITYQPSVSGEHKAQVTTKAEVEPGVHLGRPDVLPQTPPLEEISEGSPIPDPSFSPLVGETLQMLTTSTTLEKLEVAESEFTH", "outline": "as §1"}, "CDK11": {"molecular_target": "T21, CDK11 (Homo sapiens, UniProt Q9BWU1)", "T21 construct": "host or cells: T7 phage in E. coli host derived from BL21", "T21 sequence (Q9BWU1 whole entry)": "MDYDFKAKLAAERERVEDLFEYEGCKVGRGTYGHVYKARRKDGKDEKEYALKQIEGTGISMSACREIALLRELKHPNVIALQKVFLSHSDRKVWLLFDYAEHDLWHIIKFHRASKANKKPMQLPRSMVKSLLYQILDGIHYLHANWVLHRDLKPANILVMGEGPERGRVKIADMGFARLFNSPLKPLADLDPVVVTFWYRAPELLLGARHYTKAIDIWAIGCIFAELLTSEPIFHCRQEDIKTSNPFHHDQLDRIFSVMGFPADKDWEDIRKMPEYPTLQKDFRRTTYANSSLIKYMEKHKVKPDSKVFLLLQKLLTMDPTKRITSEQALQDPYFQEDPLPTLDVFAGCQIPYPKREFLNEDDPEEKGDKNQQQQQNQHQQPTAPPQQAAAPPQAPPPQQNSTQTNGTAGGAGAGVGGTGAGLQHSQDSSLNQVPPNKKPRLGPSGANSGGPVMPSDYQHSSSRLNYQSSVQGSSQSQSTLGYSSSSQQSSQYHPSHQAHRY", "outline": "as §1"}, "IKK-alpha": {"molecular_target": "T22, IKK-alpha (Homo sapiens, UniProt O15111)", "T22 construct": "host or cells: T7 phage grown in E. coli host derived from BL21", "outline": "as §1"}, "EPHA1": {"molecular_target": "T23, EPHA1 (Homo sapiens, UniProt P21709)", "T23 construct": "purchased Ambit Biosciences Corp; host or cells: T7 phage in E. coli host derived from BL21", "outline": "as §1"}, "CAMK2B": {"molecular_target": "T24, CAMK2B (Homo sapiens, UniProt Q13554)", "T24 construct": "host or cells: E. coli host derived from BL21", "outline": "as §1"}, "MEK1": {"molecular_target": "T25, MEK1 (Homo sapiens, UniProt Q02750)", "T25 construct": "host or cells: E. coli host derived from the BL21 strain, infected with T7 phage", "T25 sequence (Q02750 whole entry)": "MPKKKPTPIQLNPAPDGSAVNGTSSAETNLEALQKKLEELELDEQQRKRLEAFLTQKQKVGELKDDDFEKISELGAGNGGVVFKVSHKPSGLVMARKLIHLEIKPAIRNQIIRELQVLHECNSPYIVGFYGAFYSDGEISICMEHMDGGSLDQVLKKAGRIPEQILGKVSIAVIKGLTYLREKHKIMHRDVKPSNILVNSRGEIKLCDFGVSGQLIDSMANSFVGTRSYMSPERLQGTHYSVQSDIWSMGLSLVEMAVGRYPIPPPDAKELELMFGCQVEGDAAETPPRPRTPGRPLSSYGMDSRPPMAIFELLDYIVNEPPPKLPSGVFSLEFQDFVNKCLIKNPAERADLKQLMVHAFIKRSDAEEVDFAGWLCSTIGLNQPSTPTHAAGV", "outline": "as §1"}, "DMPK2": {"molecular_target": "T26, DMPK2 (Homo sapiens, UniProt Q6DT37)", "T26 construct": "purchased Ambit Biosciences Corp (KinomeScan); host or cells: T7 phage in E. coli host derived from BL21", "outline": "as §1"}, "CDKL2": {"molecular_target": "T27, CDKL2 (Homo sapiens, UniProt Q92772)", "T27 construct": "host or cells: T7 phage in E. coli host derived from BL21", "outline": "as §1"}, "MST2": {"molecular_target": "T28, MST2 (Homo sapiens, UniProt Q13188)", "T28 construct": "host or cells: T7 phage grown in E. coli host derived from BL21", "outline": "as §1"}, "FGFR3": {"molecular_target": "T29, FGFR3 (Homo sapiens, UniProt P22607)", "T29 construct": "host or cells: T7 phage in E. coli host derived from BL21", "outline": "as §1"}, "[4]": {"molecular_target": "T30, JAK3(JH1domain- catalytic) (Homo sapiens, UniProt P52333)", "T30 construct": "JAK3(JH1domain- catalytic); host or cells: T7 phage grown in E. coli host derived from BL21", "T30 sequence (P52333 822-1111 limits assumed)": "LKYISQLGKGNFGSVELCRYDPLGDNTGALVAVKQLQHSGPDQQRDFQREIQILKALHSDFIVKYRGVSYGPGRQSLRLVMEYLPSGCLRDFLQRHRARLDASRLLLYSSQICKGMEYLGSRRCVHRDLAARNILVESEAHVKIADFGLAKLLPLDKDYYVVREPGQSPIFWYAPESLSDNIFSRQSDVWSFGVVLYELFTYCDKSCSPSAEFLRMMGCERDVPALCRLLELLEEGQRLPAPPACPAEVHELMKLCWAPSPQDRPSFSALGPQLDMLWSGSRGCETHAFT", "outline": "as §1"}}, "data": [{"smiles": "C#Cc1cccc(Nc2ncnc3cc(OC)c(OCCCN4CCOCC4)cc23)c1", "note": "[NRC-2694, N-(3-ethynylphenyl)-7-methoxy-6-[3-(4-morpholinyl)propoxy]-4-quinazolinamine]", "values": [{"measurement": "remaining binding at 10 µM", "setting": "RIOK2", "value": 43, "unit": "%"}, {"measurement": "remaining binding at 10 µM", "setting": "TRKA", "value": 100, "unit": "%"}, {"measurement": "remaining binding at 10 µM", "setting": "MARK2", "value": 70, "unit": "%"}, {"measurement": "remaining binding at 10 µM", "setting": "LCK", "value": 1.5, "unit": "%"}, {"measurement": "remaining binding at 10 µM", "setting": "PLK1", "value": 81, "unit": "%"}, {"measurement": "remaining binding at 10 µM", "setting": "MAP4K2", "value": 48, "unit": "%"}, {"measurement": "remaining binding at 10 µM", "setting": "[1]", "value": 85, "unit": "%"}, {"measurement": "remaining binding at 10 µM", "setting": "DMPK", "value": 6.8, "unit": "%"}, {"measurement": "remaining binding at 10 µM", "setting": "LKB1", "value": 69, "unit": "%"}, {"measurement": "remaining binding at 10 µM", "setting": "LIMK2", "value": 100, "unit": "%"}, {"measurement": "remaining binding at 10 µM", "setting": "ULK1", "value": 100, "unit": "%"}, {"measurement": "remaining binding at 10 µM", "setting": "ITK", "value": 82, "unit": "%"}, {"measurement": "remaining binding at 10 µM", "setting": "YES", "value": 41, "unit": "%"}, {"measurement": "remaining binding at 10 µM", "setting": "ZAP70", "value": 100, "unit": "%"}, {"measurement": "remaining binding at 10 µM", "setting": "[2]", "value": 94, "unit": "%"}, {"measurement": "remaining binding at 10 µM", "setting": "CDK9", "value": 86, "unit": "%"}, {"measurement": "remaining binding at 10 µM", "setting": "[3]", "value": 0.1, "unit": "%"}, {"measurement": "remaining binding at 10 µM", "setting": "CDK7", "value": 0.55, "unit": "%"}, {"measurement": "remaining binding at 10 µM", "setting": "FGR", "value": 19, "unit": "%"}, {"measurement": "remaining binding at 10 µM", "setting": "PIP5K1A", "value": 61, "unit": "%"}, {"measurement": "remaining binding at 10 µM", "setting": "CDK11", "value": 87, "unit": "%"}, {"measurement": "remaining binding at 10 µM", "setting": "IKK-alpha", "value": 41, "unit": "%"}, {"measurement": "remaining binding at 10 µM", "setting": "EPHA1", "value": 55, "unit": "%"}, {"measurement": "remaining binding at 10 µM", "setting": "CAMK2B", "value": 77, "unit": "%"}, {"measurement": "remaining binding at 10 µM", "setting": "MEK1", "value": 50, "unit": "%"}, {"measurement": "remaining binding at 10 µM", "setting": "DMPK2", "value": 61, "unit": "%"}, {"measurement": "remaining binding at 10 µM", "setting": "CDKL2", "value": 67, "unit": "%"}, {"measurement": "remaining binding at 10 µM", "setting": "MST2", "value": 85, "unit": "%"}, {"measurement": "remaining binding at 10 µM", "setting": "FGFR3", "value": 100, "unit": "%"}, {"measurement": "remaining binding at 10 µM", "setting": "[4]", "value": 72, "unit": "%"}]}]}
